{"source": "patent US20040162333A1", "about": "“Rapid absorption selective 5-HT agonist formulations” (priority 2003, published 2004)", "origin": "cited, not measured here"}
{"conditions": "commercially available oral triptans", "units": {"Time to Peak Effect (Tmax)": "h"}}
{"smiles": "CN(C)CCc1c[nH]c2ccc(CS(=O)(=O)N3CCCC3)cc12", "note": "[Almotriptan (Axert), Almotriptan]", "Time to Peak Effect (Tmax)": "1 to 3"}
{"smiles": "CN[C@@H]1CCc2[nH]c3ccc(C(N)=O)cc3c2C1", "note": "[Frovatriptan (Frova), Frovatriptan]", "Time to Peak Effect (Tmax)": "2 to 4"}
{"smiles": "CNS(=O)(=O)CCc1ccc2[nH]cc(C3CCN(C)CC3)c2c1", "note": "[Naratriptan (Amerge), Naratriptan]", "Time to Peak Effect (Tmax)": "2 to 3"}
{"smiles": "CN(C)CCc1c[nH]c2ccc(Cn3cncn3)cc12", "note": "[Rizatriptan (Maxalt), Rizatriptan]", "Time to Peak Effect (Tmax)": "1 to 1.5"}
{"smiles": "CNS(=O)(=O)Cc1ccc2[nH]cc(CCN(C)C)c2c1", "note": "[Sumatriptan]", "Time to Peak Effect (Tmax)": 2.5}
{"smiles": "CN(C)CCc1c[nH]c2ccc(C[C@H]3COC(=O)N3)cc12", "note": "[Zolmitriptan (Zomig), Zolmitriptan]", "Time to Peak Effect (Tmax)": 2}
